Results on 19 compounds are retold here after patent US20230416227A1, “PLASMA KALLIKREIN INHIBITORS” (Merck Sharp & Dohme LLC, priority 2020, published 2023).

The structures appear in SMILES notation.

One experiment addresses human factor XIa (Homo sapiens, UniProt P03951). As to the kind of experiment: Factor XIa Assay. The conditions noted are these: human factor XIa 0.04 nM, substrate GPR-AFC, 30 min pre-incubation at 25° C., pH 7.4; read-out: FXIa IC50. The format is biochemical. As to the method:
The effectiveness of a compound of the present invention as an inhibitor of Coagulation factor XIa can be determined using a relevant purified serine protease, and an appropriate synthetic substrate. The rate of hydrolysis of the chromogenic or fluorogenic substrate by the relevant serine protease was measured both in the absence and presence of compounds of the present invention. Assays were conducted at rt or at 37° C. […] A decrease in the rate of fluorescence change in the presence of inhibitor is indicative of enzyme inhibition. Such methods are known to one skilled in the art. The results of this assay are expressed as the half-maximal inhibitory concentrations (IC50), or the inhibitory constant, Ki.
Compounds were pre-incubated for 30 min at 25° C. with human (0.04 nM) factor XIa in 50 mM HEPES buffer with 150 mM sodium chloride, 5 mM calcium chloride, 0.1% PEG 8000, pH 7.4. factor XIa enzymatic activity was determined by addition of the substrate glycine-proline-arginine-7-amido-4-trifluoromethylcoumarin (GPR-AFC) and measurement of the fluorescence at 400/505 nm after a 60 min incubation at 25° C. The % inhibition for each data point was calculated from the data and analyzed using the log (inhibitor) vs. response four parameters equation to determine the half-maximal inhibitory concentrations (IC50). The IC50 were converted to equilibrium inhibitory constants (Ki) using the Cheng-Prusoff equation.

For a further experiment, the target named is T1, Human plasma kallikrein (Homo sapiens, UniProt P03952).
T1 construct: yields a heavy chain (371 amino acids) and a light chain (248 amino acids); purchased Enzyme Research Laboratories
T1 sequence (P03952 391-638 limits assumed): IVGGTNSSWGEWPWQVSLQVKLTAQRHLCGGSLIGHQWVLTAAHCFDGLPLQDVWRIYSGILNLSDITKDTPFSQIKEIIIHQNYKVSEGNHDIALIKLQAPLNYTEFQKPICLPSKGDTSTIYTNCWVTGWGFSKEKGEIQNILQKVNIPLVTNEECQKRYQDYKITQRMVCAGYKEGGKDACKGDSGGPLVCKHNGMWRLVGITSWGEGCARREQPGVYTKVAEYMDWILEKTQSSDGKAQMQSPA
T1 sequence (P03952 20-390 partner limits assumed): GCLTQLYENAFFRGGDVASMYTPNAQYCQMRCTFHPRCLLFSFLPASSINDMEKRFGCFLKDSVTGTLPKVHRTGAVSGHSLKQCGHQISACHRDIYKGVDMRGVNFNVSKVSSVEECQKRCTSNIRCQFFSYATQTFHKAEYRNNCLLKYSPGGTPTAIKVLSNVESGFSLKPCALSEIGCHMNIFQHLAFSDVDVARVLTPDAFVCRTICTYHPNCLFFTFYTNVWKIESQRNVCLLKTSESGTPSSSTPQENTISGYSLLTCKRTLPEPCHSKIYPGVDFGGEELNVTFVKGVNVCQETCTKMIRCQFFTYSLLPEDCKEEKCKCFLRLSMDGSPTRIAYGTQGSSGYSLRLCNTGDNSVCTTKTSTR
Put plainly: Plasma Kallikrein Assay. The conditions noted are these: purified Human plasma kallikrein 0.5 nM, substrate Acetyl-K-P-R-AFC, pH 7.4. In kind it is biochemical.

human factor XIa, sequence (P03951 388-625 limits assumed): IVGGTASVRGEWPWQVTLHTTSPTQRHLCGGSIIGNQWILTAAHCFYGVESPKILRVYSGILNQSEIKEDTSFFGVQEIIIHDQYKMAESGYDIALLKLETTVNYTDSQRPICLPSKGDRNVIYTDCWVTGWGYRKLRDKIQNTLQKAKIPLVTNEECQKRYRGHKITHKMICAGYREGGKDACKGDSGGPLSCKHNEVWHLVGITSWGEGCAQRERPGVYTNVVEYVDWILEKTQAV
human factor XIa, sequence (P03951 19-387 partner limits assumed): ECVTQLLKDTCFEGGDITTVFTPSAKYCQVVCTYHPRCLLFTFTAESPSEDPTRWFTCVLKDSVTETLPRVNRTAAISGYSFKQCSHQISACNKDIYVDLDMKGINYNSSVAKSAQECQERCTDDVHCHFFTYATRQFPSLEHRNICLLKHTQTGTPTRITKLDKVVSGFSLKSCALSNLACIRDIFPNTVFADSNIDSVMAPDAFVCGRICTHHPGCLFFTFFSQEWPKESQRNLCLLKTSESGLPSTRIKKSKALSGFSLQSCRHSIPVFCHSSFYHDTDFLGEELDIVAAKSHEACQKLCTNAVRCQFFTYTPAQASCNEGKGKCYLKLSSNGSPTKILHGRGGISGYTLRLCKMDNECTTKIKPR

As a reminder, the IC50 is the concentration that inhibits the measured activity by half. On to `CC(c1cnc(N2CC[C@H](O)C2)nc1)n1cc(NC(=O)c2cncc(-c3c(C(F)F)ccc(Cl)c3F)n2)cn1` (mixture of isomers) [Example 96, 6-(3-Chloro-6-(difluoromethyl)-2-fluorophenyl)-N-(1-((R and S)-1-(2-((S)-3-hydroxypyrrolidin-1-yl)pyrimidin-5-yl)ethyl)-1H-pyrazol-4-yl)pyrazine-2-carboxamide], for which the results for the IC50 at human factor XIa and on Human plasma kallikrein were 3710 nM and 25.9 nM, respectively.

In the case of `O=C(Nc1cnn(Cc2cnc(N3C[C@H]4C[C@H]4[C@H]3CN[C@H]3CCC[C@@H]3O)nc2)c1)c1cncc(-c2c(C(F)F)ccc(Cl)c2F)n1` [Example 149, 6-(3-Chloro-6-(difluoromethyl)-2-fluorophenyl)-N-(1-((2-((1R,2S,5S)-2-((((1S,2S)-2-hydroxycyclopentyl)amino)methyl)-3-azabicyclo[3.1.0]hexan-3-yl)pyrimidin-5-yl)methyl)-1H-pyrazol-4-yl)pyrazine-2-carboxamide], at human factor XIa, the half-maximal inhibitory concentration (IC50) was 1480 nM.

In turn, `CC(c1cnc(N2CC[C@H]2CN2CCCC(C)(O)C2)nc1)n1cc(NC(=O)c2cncc(-c3c(C(F)F)ccc(Cl)c3F)n2)cn1` (stereo partly drawn) [Example 176, 6-(3-Chloro-6-(difluoromethyl)-2-fluorophenyl)-N-(1-(1-(2-((2S)-2-((3-hydroxy-3-methylpiperidin-1-yl)methyl)azetidin-1-yl)pyrimidin-5-yl)ethyl)-1H-pyrazol-4-yl)pyrazine-2-carboxamide] had an IC50 on Human plasma kallikrein of 1.4 nM.

On Human plasma kallikrein, `CC(c1cnc(N2CC[C@H]2CN2CCC[C@@H](O)C2)nc1)n1cc(NC(=O)c2cncc(-c3c(C(F)F)ccc(Cl)c3F)n2)cn1` (stereo partly drawn) [Example 177, 6-(3-Chloro-6-(difluoromethyl)-2-fluorophenyl)-N-(1-(1-(2-((S)-2-(((R)-3-hydroxypiperidin-1-yl)methyl)azetidin-1-yl)pyrimidin-5-yl)ethyl)-1H-pyrazol-4-yl)pyrazine-2-carboxamide] came in with an IC50 of 1.2 nM.

`CC(c1cnc(N2CC[C@H]2CN2CC[C@@H](O)C[C@@H]2C)nc1)n1cc(NC(=O)c2cncc(-c3c(C(F)F)ccc(Cl)c3F)n2)cn1` (stereo partly drawn) [Example 178, 6-(3-Chloro-6-(difluoromethyl)-2-fluorophenyl)-N-(1-(1-(2-((S)-2-(((2S,4R)-4-hydroxy-2-methylpiperidin-1-yl)methyl)azetidin-1-yl)pyrimidin-5-yl)ethyl)-1H-pyrazol-4-yl)pyrazine-2-carboxamide] showed an IC50 on Human plasma kallikrein of 3.3 nM.

`CC(c1cnc(N2CC[C@H]2CN2CC[C@H](O)[C@@H](C)C2)nc1)n1cc(NC(=O)c2cncc(-c3c(C(F)F)ccc(Cl)c3F)n2)cn1` (stereo partly drawn) [Example 180, 6-(3-Chloro-6-(difluoromethyl)-2-fluorophenyl)-N-(1-(1-(2-((S)-2-(((3S,4S)-4-hydroxy-3-methylpiperidin-1-yl)methyl)azetidin-1-yl)pyrimidin-5-yl)ethyl)-1H-pyrazol-4-yl)pyrazine-2-carboxamide]: on Human plasma kallikrein, the IC50 came out at 1.1 nM.

On to `CC(c1cnc(N2CC[C@H]2CN[C@@H]2CCC[C@H]2O)nc1)n1cc(NC(=O)c2cncc(-c3c(C(F)F)ccc(Cl)c3F)n2)cn1` (stereo partly drawn) [Example 181, 6-(3-Chloro-6-(difluoromethyl)-2-fluorophenyl)-N-(1-(1-(2-((S)-2-((((1R,2R)-2-hydroxycyclopentyl)amino)methyl)azetidin-1-yl)pyrimidin-5-yl)ethyl)-1H-pyrazol-4-yl)pyrazine-2-carboxamide], for which half-maximal inhibition against Human plasma kallikrein (IC50) was put at 4.2 nM.

Compound `CC(c1cnc(N2CC[C@H]2CN[C@H](C)C(C)(C)O)nc1)n1cc(NC(=O)c2cncc(-c3c(C(F)F)ccc(Cl)c3F)n2)cn1` (stereo partly drawn) [Example 182, 6-(3-Chloro-6-(difluoromethyl)-2-fluorophenyl)-N-(1-(1-(2-((S)-2-((((R)-3-hydroxy-3-methylbutan-2-yl)amino)methyl)azetidin-1-yl)pyrimidin-5-yl)ethyl)-1H-pyrazol-4-yl)pyrazine-2-carboxamide] came in with an IC50 against Human plasma kallikrein of 6.1 nM.

On Human plasma kallikrein, `CC(c1cnc(N2CC[C@H]2CN(C)[C@H]2CCC[C@@H]2O)nc1)n1cc(NC(=O)c2cncc(-c3c(C(F)F)ccc(Cl)c3F)n2)cn1` (stereo partly drawn) [Example 183, 6-(3-Chloro-6-(difluoromethyl)-2-fluorophenyl)-N-(1-(1-(2-((S)-2-((((1S,2S)-2-hydroxycyclopentyl)(methyl)amino)methyl)azetidin-1-yl)pyrimidin-5-yl)ethyl)-1H-pyrazol-4-yl)pyrazine-2-carboxamide] came in with an IC50 of 4.2 nM.

Take `CC(c1cnc(N2CC[C@H]2[C@@H](C)N2CC[C@H](O)[C@@H]2C)nc1)n1cc(NC(=O)c2cncc(-c3c(C(F)F)ccc(Cl)c3F)n2)cn1` (stereo partly drawn) [Example 185, 6-(3-Chloro-6-(difluoromethyl)-2-fluorophenyl)-N-(1-(1-(2-((S)-2-((R)-1-((2S,3S)-3-hydroxy-2-methylpyrrolidin-1-yl)ethyl)azetidin-1-yl)pyrimidin-5-yl)ethyl)-1H-pyrazol-4-yl)pyrazine-2-carboxamide]: half-maximal inhibition against Human plasma kallikrein (IC50) was put at 1.5 nM.

With `CC(c1cnc(N2CC[C@H]2[C@@H](C)N2CC[C@H](O)C2)nc1)n1cc(NC(=O)c2cncc(-c3c(C(F)F)ccc(Cl)c3F)n2)cn1` (stereo partly drawn) [Example 186, 6-(3-Chloro-6-(difluoromethyl)-2-fluorophenyl)-N-(1-(1-(2-((S)-2-((R)-1-((S)-3-hydroxypyrrolidin-1-yl)ethyl)azetidin-1-yl)pyrimidin-5-yl)ethyl)-1H-pyrazol-4-yl)pyrazine-2-carboxamide], half-maximal inhibition against Human plasma kallikrein (IC50) required 1.4 nM.

`CC(c1cnc(N2CC[C@H]2[C@@H](C)N2C[C@@H](O)[C@H](F)C2)nc1)n1cc(NC(=O)c2cncc(-c3c(C(F)F)ccc(Cl)c3F)n2)cn1` (stereo partly drawn) [Example 189, 6-(3-Chloro-6-(difluoromethyl)-2-fluorophenyl)-N-(1-(1-(2-((S)-2-((R)-1-((3R,4R)-3-fluoro-4-hydroxypyrrolidin-1-yl)ethyl)azetidin-1-yl)pyrimidin-5-yl)ethyl)-1H-pyrazol-4-yl)pyrazine-2-carboxamide] came in with a half-inhibitory concentration (IC50) at Human plasma kallikrein of 1.2 nM.

Compound `CC(c1cnc(N2CC[C@H]2[C@@H](C)N2CC(C)(O)C2)nc1)n1cc(NC(=O)c2cncc(-c3c(C(F)F)ccc(Cl)c3F)n2)cn1` (stereo partly drawn) [Example 190, 6-(3-Chloro-6-(difluoromethyl)-2-fluorophenyl)-N-(1-(1-(2-((S)-2-((R)-1-(3-hydroxy-3-methylazetidin-1-yl)ethyl)azetidin-1-yl)pyrimidin-5-yl)ethyl)-1H-pyrazol-4-yl)pyrazine-2-carboxamide] registered an IC50 against Human plasma kallikrein of 3.5 nM.

On Human plasma kallikrein, `CC(c1cnc(N2CC[C@H]2[C@@H](C)N2CC(C(C)(C)O)C2)nc1)n1cc(NC(=O)c2cncc(-c3c(C(F)F)ccc(Cl)c3F)n2)cn1` (stereo partly drawn) [Example 191, 6-(3-Chloro-6-(difluoromethyl)-2-fluorophenyl)-N-(1-(1-(2-((S)-2-((R)-1-(3-(2-hydroxypropan-2-yl)azetidin-1-yl)ethyl)azetidin-1-yl)pyrimidin-5-yl)ethyl)-1H-pyrazol-4-yl)pyrazine-2-carboxamide] gave an IC50 of 1.1 nM.

As to `CC(c1cnc(N2CC[C@H]2[C@@H](C)NCC2(O)CC2)nc1)n1cc(NC(=O)c2cncc(-c3c(C(F)F)ccc(Cl)c3F)n2)cn1` (stereo partly drawn) [Example 192, 6-(3-Chloro-6-(difluoromethyl)-2-fluorophenyl)-N-(1-(1-(2-((S)-2-((R)-1-(((1-hydroxycyclopropyl)methyl)amino)ethyl)azetidin-1-yl)pyrimidin-5-yl)ethyl)-1H-pyrazol-4-yl)pyrazine-2-carboxamide], half-maximal inhibition against Human plasma kallikrein (IC50) required 4.1 nM.

Regarding `CC(c1cnc(N2CC[C@H]2[C@@H](C)N[C@@H]2CCC[C@H]2O)nc1)n1cc(NC(=O)c2cncc(-c3c(C(F)F)ccc(Cl)c3F)n2)cn1` (stereo partly drawn) [Example 193, 6-(3-Chloro-6-(difluoromethyl)-2-fluorophenyl)-N-(1-(1-(2-((S)-2-((R)-1-(((1R,2R)-2-hydroxycyclopentyl)amino)ethyl)azetidin-1-yl)pyrimidin-5-yl)ethyl)-1H-pyrazol-4-yl)pyrazine-2-carboxamide], the half-maximal inhibitory concentration (IC50) on Human plasma kallikrein came to 8.1 nM.

On Human plasma kallikrein, `CC(c1cnc(N2CC[C@H]2[C@@H](C)N[C@H](C)C(C)(C)O)nc1)n1cc(NC(=O)c2cncc(-c3c(C(F)F)ccc(Cl)c3F)n2)cn1` (stereo partly drawn) [Example 194, 6-(3-Chloro-6-(difluoromethyl)-2-fluorophenyl)-N-(1-(1-(2-((S)-2-((R)-1-(((R)-3-hydroxy-3-methylbutan-2-yl)amino)ethyl)azetidin-1-yl)pyrimidin-5-yl)ethyl)-1H-pyrazol-4-yl)pyrazine-2-carboxamide] gave an IC50 of 21.6 nM.

At Human plasma kallikrein, `O=C(Nc1cnn(Cc2ccc(N3CC4CCC(C3)N4)nc2)c1)c1cncc(-c2c(C(F)F)ccc(Cl)c2F)n1` [Example 204, N-(1-((6-(3,8-Diazabicyclo[3.2.1]octan-3-yl)pyridin-3-yl)methyl)-1H-pyrazol-4-yl)-6-(3-chloro-6-(difluoromethyl)-2-fluorophenvl)pyrazine-2-carboxamide] registered an IC50 of 17.5 nM.

`CN1C2CCC1CN(c1ccc(Cn3cc(NC(=O)c4cncc(-c5c(C(F)F)ccc(Cl)c5F)n4)cn3)cn1)C2` [Example 205, 6-(3-Chloro-6-(difluoromethyl)-2-fluorophenyl)-N-(1-((6-(8-methyl-3,8-diazabicyclo[3.2.1]octan-3-yl)pyridin-3-yl)methyl)-1H-pyrazol-4-yl)pyrazine-2-carboxamide] showed a half-inhibitory concentration (IC50) at Human plasma kallikrein of 14.1 nM.
